From patent US12595269B2, “Morpholine-like monoamine releasers” (Solvonis Therapeutics Ireland Holdings Limited, priority 2022, dated 2026) come the findings set out here.

Bounds are passed on as bounds.

The target in the data set is T1, CYP1A2 (Homo sapiens, UniProt P05177).
T1 construct: host or cells: recombinant microsomes
T1 sequence (P05177 1-516): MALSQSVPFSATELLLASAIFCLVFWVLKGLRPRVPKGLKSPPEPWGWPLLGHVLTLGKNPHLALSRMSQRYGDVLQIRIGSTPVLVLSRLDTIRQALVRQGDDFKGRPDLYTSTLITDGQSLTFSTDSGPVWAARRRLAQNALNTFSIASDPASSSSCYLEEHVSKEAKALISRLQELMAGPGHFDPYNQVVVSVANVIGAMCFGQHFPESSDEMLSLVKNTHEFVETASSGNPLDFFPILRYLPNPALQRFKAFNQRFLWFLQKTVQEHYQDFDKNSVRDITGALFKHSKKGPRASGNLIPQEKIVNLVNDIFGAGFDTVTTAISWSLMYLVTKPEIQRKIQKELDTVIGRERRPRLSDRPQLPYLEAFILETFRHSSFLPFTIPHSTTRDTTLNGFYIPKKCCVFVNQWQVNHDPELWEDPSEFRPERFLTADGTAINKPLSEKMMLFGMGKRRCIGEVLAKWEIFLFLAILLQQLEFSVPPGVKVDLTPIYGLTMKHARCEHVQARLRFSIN
Nature of the data set: CYP450 inhibition, fluorescent probe, recombinant microsomes: CYP1A2. It counts as in vitro ADME. The procedure: Methods and Procedure: The study was performed in agreement with previously described procedures to assure data integrity and adherence to GLP standards. Briefly, recombinant human CYP450 isoenzymes were used to metabolize pro-fluorescent probe substrates to fluorescent products. IC50 values determined from the effect of test compounds on the metabolism of these probe substrates were then used to determine inhibitory potency against CYP450 isoforms.
The test system was based on a three-step procedure with a “mix and read” format, where PGP-432,TI reaction and reading were performed at 37° C. […] Fluorescence was measured in kinetic mode (1 read/minutes for 10 minutes), and the fluorescence rate was calculated. […]
Microsomes were added to the buffer prior to the substrate addition. […] For fluorescence measurement, 10 μL/well of the test compounds were transferred from the compound plate to the assay plate using Biomek FX and the appropriate protocol. […]
10 μL/well of the cofactor was then added to the assay plate using the Multidrop before placing the assay plate in the plate reader EnVision to measure fluorescence. […]
Next, 10 μL/well from the compound plate was added and incubated for 10 minutes at 37° C. on a plate shaker, while a mixture of Vivid Substrate and Vivid NADP+ in Vivid CYP450 Reaction Buffer was prepared. […] Regarding data analysis, the inhibition effect is expressed as a percentage. […]

For the compound `CNC(C)Cc1ccc2c(c1)OCO2` (centres unmarked) [MDMA, reference compound], under “human, recombinant microsomes expressing CYP1A2”, the IC50 at 10 min came out at 50 µM.

Take `Clc1ccc(C23CNC(CO2)C3)cc1Cl` (centres unmarked) [522A, 1-(3,4-dichlorophenyl)-2-oxa-5-azabicyclo[2.2.1]heptane]: the IC50 (recombinant human CYP1A2) is more than 50 µM.
